Patent US8809377B2, “Deubiquitinase inhibitors and methods for use of the same” (The Regents of the University of Michigan, priority 2010, dated 2014)
“Also recorded” adds a separate entry of the source.

Tests used:
Type in all cases: cell-based
[1] = system: Vesicular Stomatitis Virus (VSV)
Mcl1 = test: Western blot of Mcl-1 levels
Experimental: Total cell lysates were prepared by boiling and sonicating cell pellets in 1× Laemmli reducing sample buffer. To prepare detergent soluble and insoluble fractions, cells were lysed in cold isotonic lysis buffer [10 mM Tris-HCl (pH 7.5), 0.5% Triton X-100, 150 mM NaCl along with Mini-Complete and PhosSTOP] for 15 min on ice and centrifuged 10 min at 20,000 RCF. The clarified supernatant was used as the detergent soluble cell fraction. The residual pellet was washed and extracted in Laemmli reducing sample buffer and briefly sonicated to derive the detergent insoluble fraction. Equal volumes of cellular lysate or equal protein amounts were electrophoresed on SDS-PAGE gels and transferred to nitrocellulose membranes (Whatmann, Dassel, Germany). Proteins were detected by immunoblotting.
Whole cell lysates were prepared by boiling and sonicating the cell pellets in 1× Laemmli reducing sample buffer. To prepare detergent soluble and insoluble fractions, cells were lysed in cold isotonic lysis buffer [10 mM Tris-HCl (pH 7.5), 0.5% Triton X-100, 150 mM NaCl along with Mini-Complete and PhosSTOP] for 15 min on ice and centrifuged 10 minutes at 20,000 RCF. The clarified supernatant was used as a source of the detergent soluble cell fraction. The detergent insoluble fraction was extracted by the sonication of residual pellet in equal volumes of boiling 1× Laemmli reducing sample buffer. […]

20S proteasome = target: T1, 20S proteasome (Homo sapiens, UniProt P28074); test: Proteasome activity assay in treated cells (Suc-LLVY-AMC); conditions: 5 μM, 2 hr
T1 construct: endogenous in cells; host or cells: K562 and other CML lines, Z138
T1 sequence (P28074 60-263): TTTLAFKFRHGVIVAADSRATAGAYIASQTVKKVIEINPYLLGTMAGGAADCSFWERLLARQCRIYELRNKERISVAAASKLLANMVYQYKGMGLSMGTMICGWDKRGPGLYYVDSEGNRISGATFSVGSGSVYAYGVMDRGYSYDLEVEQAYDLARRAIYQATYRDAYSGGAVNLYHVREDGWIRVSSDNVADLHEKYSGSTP
Experimental: Fluorogenic substrate Suc-LLVY-AMC was used to assay for the chymotryptic-like activity of the 20S proteasome. To assay for in vivo proteasome inhibition cells were treated with WP1130 (5 μM) or MG132 (5 μM) for 2 hours and lysed in ice-cold lysis buffer (50 mM HEPES, pH 7.5, 5 mM EDTA, 150 mM NaCl, 1% Triton X-100). Lysates were clarified by centrifugation at 20,000 RCF for 10 min and equal amounts of protein from each sample were incubated at 37° C. with 100 μM fluorogenic substrate. To assay for direct inhibition of the 20S proteasome in vitro, purified 20S human proteasome (200 ng) was incubated with WP1130 (5 μM), MG132 (5 μM) or Lactacystin (5 μM) for 30 min at 37° C. before addition of the substrates. Fluorescence intensity was measured using a spectrophotometer at excitation 360 nm & emission 460 nm. Assays were performed in triplicate, and statistical significance was determined with a paired Student's t test.

CCC[C@H](NC(=O)/C(C#N)=C/c1cccc(Br)n1)c1ccccc1 [WP1130]
block of virus infection [1]: not
MCL-1 levels (Mcl1; Z138 cells): rapid decline
Mcl-1 levels (Mcl1; imatinib sensitive and resistant CML cells): reduced
20S proteasome chymotryptic-like activity in intact cells (in vivo) (20S proteasome): did not suppress; also recorded: no significant decline
